Assay results as given in ChEMBL document CHEMBL3885861, “Open TG-GATES”.

Organism: Rattus norvegicus
Assay: Open TG-GATES - Regimen: Single
Format: toxicity, organism-based, Sprague-Dawley
Parameters: regimen Single, gender Male, age 6 weeks
Settings: in vivo, po, 10 mg/kg, route gavage, dose level Low; for APTT / Bas / Eos / Fbg / Hb / Ht / Lym / MCH / MCHC / MCV / Mono / Neu / PT / Plat / RBC / Ret / WBC: tissue Blood; for KIDNEY_L / KIDNEY_R / KIDNEY_TOTAL: tissue Kidney; for LIVER: tissue Liver; for A/G / ALP / ALT / AST / BUN / CRE / Ca / Cl / DBIL / GLC / IP / K / LDH / Na / PL / RALB / TBIL / TC / TG / TP / gamma-GTP: tissue Plasma

## CCN(CC)N=O [N-NITROSODIETHYLAMINE]
3 h
  TERMINAL_BW: 222.2 g
  APTT: 18.5 s
  Bas: 0.4%
  Eos: 0.8%
  Fbg: 221.2 mg/dL
  Hb: 13.4 g/dL
  Ht: 39.5%
  Lym: 74.8%
  MCH: 21.3 pg
  MCHC: 33.9%
  MCV: 62.8 fL
  Mono: 2.2%
  Neu: 21.2%
  PT: 12.3 s
  Plat: 120.1 x10_4/uL
  RBC: 629.8 x10_4/ul
  Ret: 7.4%
  WBC: 85.8 x10_2/uL
  KIDNEY_L: 1 g
  KIDNEY_R: 1 g
  KIDNEY_TOTAL: 2 g
  LIVER: 9.3 g
  A/G: 1.7
  ALP: 906.2 IU/L
  ALT: 45 IU/L
  AST: 74.4 IU/L
  BUN: 10.8 mg/dL
  CRE: 0.4 mg/dL
  Ca: 10.2 mg/dL
  Cl: 103 meq/L
  DBIL: 0.062 mg/dL
  GLC: 190.2 mg/dL
  IP: 8.8 mg/dL
  K: 3.6 meq/L
  LDH: 194 IU/L
  Na: 141.2 meq/L
  PL: 123.4 mg/dL
  RALB: 3.4 g/dL
  TBIL: 0.1 mg/dL
  TC: 77.4 mg/dL
  TG: 34 mg/dL
  TP: 5.4 g/dL
  gamma-GTP: 1 IU/L
6 h
  TERMINAL_BW: 226.2 g
  APTT: 18.6 s
  Bas: 0.6%
  Eos: 1%
  Fbg: 235 mg/dL
  Hb: 13.3 g/dL
  Ht: 39.1%
  Lym: 78%
  MCH: 20.7 pg
  MCHC: 34%
  MCV: 60.9 fL
  Mono: 2.4%
  Neu: 17.4%
  PT: 12.1 s
  Plat: 127.1 x10_4/uL
  RBC: 642.4 x10_4/ul
  Ret: 6.1%
  WBC: 90.2 x10_2/uL
  KIDNEY_L: 1 g
  KIDNEY_R: 1 g
  KIDNEY_TOTAL: 2 g
  LIVER: 10.3 g
  A/G: 1.5
  ALP: 923.4 IU/L
  ALT: 39 IU/L
  AST: 69 IU/L
  BUN: 14.2 mg/dL
  CRE: 0.4 mg/dL
  Ca: 10.4 mg/dL
  Cl: 103.2 meq/L
  DBIL: 0.078 mg/dL
  GLC: 199.2 mg/dL
  IP: 7.6 mg/dL
  K: 3.7 meq/L
  LDH: 220.8 IU/L
  Na: 140.6 meq/L
  PL: 144 mg/dL
  RALB: 3.3 g/dL
  TBIL: 0.1 mg/dL
  TC: 81 mg/dL
  TG: 62.6 mg/dL
  TP: 5.6 g/dL
  gamma-GTP: 1.2 IU/L
9 h
  TERMINAL_BW: 226.3 g
  APTT: 18.1 s
  Bas: 0.8%
  Eos: 1%
  Fbg: 222.4 mg/dL
  Hb: 14 g/dL
  Ht: 40.2%
  Lym: 80.6%
  MCH: 21.7 pg
  MCHC: 34.8%
  MCV: 62.1 fL
  Mono: 2.4%
  Neu: 14.4%
  PT: 12.2 s
  Plat: 123.8 x10_4/uL
  RBC: 647 x10_4/ul
  Ret: 6.7%
  WBC: 100.3 x10_2/uL
  KIDNEY_L: 0.9 g
  KIDNEY_R: 1 g
  KIDNEY_TOTAL: 1.9 g
  LIVER: 10.3 g
  A/G: 1.6
  ALP: 1025.2 IU/L
  ALT: 38.6 IU/L
  AST: 67.2 IU/L
  BUN: 14.4 mg/dL
  CRE: 0.4 mg/dL
  Ca: 10.7 mg/dL
  Cl: 103.2 meq/L
  DBIL: 0.09 mg/dL
  GLC: 188.4 mg/dL
  IP: 8.3 mg/dL
  K: 3.9 meq/L
  LDH: 169.8 IU/L
  Na: 141.4 meq/L
  PL: 141.4 mg/dL
  RALB: 3.5 g/dL
  TBIL: 0.1 mg/dL
  TC: 76 mg/dL
  TG: 90.4 mg/dL
  TP: 5.7 g/dL
  gamma-GTP: 1.2 IU/L
24 h
  TERMINAL_BW: 229.3 g
  APTT: 19.1 s
  Bas: 0.4%
  Eos: 1%
  Fbg: 235.6 mg/dL
  Hb: 13.5 g/dL
  Ht: 39.9%
  Lym: 78.4%
  MCH: 21.2 pg
  MCHC: 33.9%
  MCV: 62.5 fL
  Mono: 3%
  Neu: 16.6%
  PT: 11.9 s
  Plat: 124.7 x10_4/uL
  RBC: 638.2 x10_4/ul
  Ret: 6.6%
  WBC: 79.1 x10_2/uL
  KIDNEY_L: 1 g
  KIDNEY_R: 1 g
  KIDNEY_TOTAL: 2 g
  LIVER: 10.1 g
  A/G: 1.5
  ALP: 877 IU/L
  ALT: 34.8 IU/L
  AST: 64.4 IU/L
  BUN: 14.4 mg/dL
  CRE: 0.4 mg/dL
  Ca: 10.7 mg/dL
  Cl: 104.6 meq/L
  DBIL: 0.086 mg/dL
  GLC: 202.8 mg/dL
  IP: 9.4 mg/dL
  K: 4 meq/L
  LDH: 208.6 IU/L
  Na: 141.6 meq/L
  PL: 142.6 mg/dL
  RALB: 3.3 g/dL
  TBIL: 0.1 mg/dL
  TC: 73.8 mg/dL
  TG: 86.4 mg/dL
  TP: 5.5 g/dL
  gamma-GTP: 1.4 IU/L
